This is an account of results in ChEMBL document CHEMBL3832060, “DailyMed|setid=39945812-f776-4b13-8199-e846e37aa101 | TRAMADOL HYDROCHLORIDE AND ACETAMINOPHEN - tramadol hydrochloride and acetaminophen tablet, film coated|Cadila Healthcare Limited”.

The nature of the series: clinical. The following applies: human, in vivo, po.

Description: Evalaution of pharmacokinetic parameters of Acetaminophen following single oral co-administration of 325 mg Acetaminophen tablets with 37.5 mg Tramadol.

One may read the Cmax as the highest concentration seen after dosing. What is called Tmax is the time from dosing to the highest level. The half-life is the time needed for the level to fall by half in the phase considered. A lower half-life goes with rapid decline. On to `CC(=O)Nc1ccc(O)cc1` [ACETAMINOPHEN], for which the highest concentration (Cmax) came out at 4.2 µg/mL, the Tmax was found to be 0.9 h and the half-life is 2.5 h.
